In patent publication US20250228984A1, “Metallophore-Radionuclide Complex as Nuclear Imaging Contrast Agents” (priority 2024, published 2025):

Key:
[1] = iTLC and HPLC characterization of DFO complexes, 68Ga; format: physicochemical; conditions: for DFO complex, pH 3 / DFO complex, pH 5.5: 68Ga, 37° C.
Method: (§1) Extensive HPLC and thin-layer chromatography (TLC) analysis of multiple radiometals with pyochelin or DFO were performed. Radiometals were combined with siderophore at ratio of 20 uCi/ug in 50 uL buffer. Buffers consisted of sodium acetate (NaOAc), ammonium acetate, and HEPES at pH 3.5, 5.5, and 7 respectively. Complexation was heated to either 37° C. for one hour or 50° C. for one hour. Gallium-68 was prepared by concentrating the generator eluate in 0.1 M HCl onto a 30 mg Strata-XC cartridge, which was then air dried and the gallium eluted with three 150 uL aliquots of acetone. Reactions with gallium-68 were then carried out by adding 5 μg of siderophore with 50 uL of pH 3.5 sodium acetate and ˜250 uCi of gallium-68 radiometal and incubated at 37° C. for 20 minutes. Reaction products were placed on HPLC at 5-50% acetonitrile for 15 minutes using a kinetex evo C-18 column.

[2] = iTLC and HPLC characterization of DFO complexes, 64Cu; format: physicochemical; conditions: 37° C.
Method: as §1

[3] = system: FoxA expressing P. aeruginosa; test: PET/CT imaging and ex vivo biodistribution of Ga-68 DFO, P. aeruginosa; format: in vivo, Pseudomonas aeruginosa
[4] = system: non-FoxA expressing organisms; test: PET/CT imaging and ex vivo biodistribution of Ga-68 DFO, non-FoxA organisms; format: in vivo
[5] = Preliminary screen of Cu-64 with different siderophores (complexation); format: physicochemical; conditions: for Cu-64 screen with siderophore, pH 3 / Cu-64 screen with siderophore, pH 5.5 / Cu-64 screen with siderophore, pH 7.0 / Cu-64 screen with siderophore, pH 9: 64Cu
Method: Preliminary in vitro data evaluating multiple siderophores with multiple radiometals to understand general binding characteristics was performed. To further evaluate Cu-64 binding affinity with Pch for in vivo applications, in vitro HPLC stability studies were performed to determine the percentage of bound Cu-64-Pch after incubation in serum. Samples were incubated for time points 0, 0.5, 1, 6, and 24. After incubation, samples were prepared for HPLC analysis by adding 500 uL of ammonium acetate with ethanol extraction solvent, spun at 12,000 RPM for 5 minutes. The top 2⁄3 of the supernatant was removed for HPLC analysis. After HPLC stability analysis, multiple HPLC purity studies were performed to determine the relative amount of free copper compared to Pch-bound copper. To prepare for purity analysis, 150 uCi of Cu-64 was incubated for 1 hour with varying amounts of 1 mg/mL pyochelin ranging from 0.5 to 10 uL, with ammonium acetate being added to reach a maximum volume of 350 uL. Additional purity studies were conducted using 150 uCi of Cu-64 along with 10 uL of 1 mg/mL pyochelin and ammonium acetate, but involved varying incubation periods consisting of 10, 20, 30, 45, and 60 minutes at 37° C. Lastly, UV chromatograms of Pch were generated using varying concentrations of Pch in ammonium acetate, consisting of 25, 50, 100, and 200 uL of Pch with ammonium acetate being added to reach 350 uL total volume. All HPLC analysis was conducted using 5-95% acetonitrile gradient over 10 minutes, with a flow rate of 1 mL/min using an Agilent Poroshell 120 EC-C18 column. Extensive HPLC and thin-layer chromatography (TLC) analysis of multiple radiometals with pyochelin or DFO were performed. Radiometals were combined with siderophore at ratio of 20 uCi/ug in 50 uL buffer. Buffers consisted of sodium acetate (NaOAc), ammonium acetate, and HEPES at pH 3.5, 5.5, and 7 respectively. […] Gallium-68 was prepared by concentrating the generator eluate in 0.1 M HCl onto a 30 mg Strata-XC cartridge, which was then air dried and the gallium eluted with three 150 uL aliquots of acetone. Reactions with gallium-68 were then carried out by adding 5 μg of siderophore with 50 uL of pH 3.5 sodium acetate and 250 uCi of gallium-68 radiometal and incubated at 37° C. for 20 minutes. Reaction products were placed on HPLC at 5-50% acetonitrile for 15 minutes using a […] evo C-18 column.

[6] = TLC analysis of pyochelin complexation with lead-203; format: physicochemical
Method: (§2) All radiometals-pyochelin combinations were screened at pH 3.5, 5.5, and 7 at both 37° C. and 50° C. […] (FIG. 4F).
as §1

[7] = TLC analysis of pyochelin complexation with zirconium-89; format: physicochemical
Method: as §2, §1

[8] = TLC analysis of pyochelin complexation with titanium-45; format: physicochemical
Method: as §2, §1

[9] = TLC analysis of pyochelin complexation with manganese-52; format: physicochemical
Method: as §2, §1

[10] = TLC analysis of pyochelin complexation with gallium-68; format: physicochemical
Method: as §2, §1

[11] = HPLC stability of Cu-64-Pch after incubation in serum; format: in vitro ADME; conditions: after 24 hours of serum incubation
Method: Preliminary in vitro data evaluating multiple siderophores with multiple radiometals to understand general binding characteristics was performed. To further evaluate Cu-64 binding affinity with Pch for in vivo applications, in vitro HPLC stability studies were performed to determine the percentage of bound Cu-64-Pch after incubation in serum. Samples were incubated for time points 0, 0.5, 1, 6, and 24. After incubation, samples were prepared for HPLC analysis by adding ˜500 uL of ammonium acetate with ethanol extraction solvent, spun at 12,000 RPM for 5 minutes. The top ⅔ of the supernatant was removed for HPLC analysis. After HPLC stability analysis, multiple HPLC purity studies were performed to determine the relative amount of free copper compared to Pch-bound copper. To prepare for purity analysis, ˜150 uCi of Cu-64 was incubated for 1 hour with varying amounts of 1 mg/mL pyochelin ranging from 0.5 to 10 uL, with ammonium acetate being added to reach a maximum volume of 350 uL. Additional purity studies were conducted using ˜150 uCi of Cu-64 along with 10 uL of 1 mg/mL pyochelin and ammonium acetate, but involved varying incubation periods consisting of 10, 20, 30, 45, and 60 minutes at 37° C. […]

[12] = system: fptA expressing P. aeruginosa; test: PET/CT imaging and lung biodistribution of Cu-64 Pch in infected mice, P. aeruginosa; format: in vivo, Pseudomonas aeruginosa
Method: (§3) In vivo studies were performed using Balb/c mice. On day 1, Pseudomonas aeruginosa (PA01), Klebsiella pneumoniae, E. coli Nissle, E. coli UTI89, or Staphylococcus aureus bacterial concentrations of ˜3×10^6 CFU/mL were prepared via centrifugation at 7 k RPM and washed three times with 1 mL of phosphate-buffered saline (PBS). 100 uL of bacterial concentrates were administered to groups of 3 mice intra-nasally, along with one group receiving 0.9% saline. After 24 hours, Cu-64 Pch was prepared and given retro-orbitally at a dose of ˜150 uCi per mouse. 48 hours after bacterial administration, the mice underwent PET/CT imaging. Immediately after imaging, the mice were sacked, and the lungs harvested for radioactive biodistribution measurements.
(§4) An additional in vivo study was performed using only PA01 bacteria. In this example, the bacteria were administered via intra-tracheal route, rather than intra-nasal. This route of administration is limited to 20 uL. Similarly, Ga-68 pyochelin studies were performed as follows: on day 1, PA01 was grown overnight to a concentration of ˜3×10^6 CFU/mL. After overnight incubation, the bacteria was washed with PBS and 100 uL was administered intranasally to each mouse. 5 hours after bacterial administration, Ga-68 was prepared and given retro-orbitally at a dose of ˜150-200uCi per mouse. 1 hour after Ga-68 injection, the mice were imaged via PET/CT, followed by euthanasia for biodistribution of the lungs.

[13] = system: non-fptA expressing organisms; test: PET/CT imaging and lung biodistribution of Cu-64 Pch in infected mice, non-fptA organisms; format: in vivo
Method: as §3

[14] = Radio chromatogram stability of gallium bound Pch in serum; format: in vitro ADME
[15] = system: fptA expressing P. aeruginosa; test: PET/CT imaging and ex vivo biodistribution of Ga-68 pyochelin, P. aeruginosa; format: in vivo, Pseudomonas aeruginosa; conditions: mice, bacteria intranasally, probe retro-orbitally ~150-200uCi, PET/CT 1 hour after injection
Method: as §4

[16] = system: non-fptA expressing organisms; test: PET/CT imaging and ex vivo biodistribution of Ga-68 pyochelin, non-fptA organisms; format: in vivo; conditions: mice with non-fptA expressing organisms
[17] = pH 3.5, 5.5, 7, 37° C. and 50° C.

CC(=O)N(O)CCCCCNC(=O)CCC(=O)N(O)CCCCCNC(=O)CCC(=O)N(O)CCCCCN [DFO, desferrioxamine B]
DFO complex, pH 3 ([1]; 20 mins): 93 | DFO complex, pH 5.5 ([1]; 20 mins): 62 | DFO complex, pH 3 ([1]; 60 mins): 92 | DFO complex, pH 5.5 ([1]; 60 mins): 98 | complexation between Ga-68 and DFO, in words ([1]; pH 3 and pH 5.5, 37° C.): high complexation | DFO complex, pH 3 ([2]; 20 mins): 1 | DFO complex, pH 5.5 ([2]; 20 mins): 4 | DFO complex, pH 3 ([2]; 60 mins): 1 | DFO complex, pH 5.5 ([2]; 60 mins): 1

CC(=O)N([O-])CCCCCNC(=O)CCC(=O)N([O-])CCCCCNC(=O)CCC(=O)N([O-])CCCCCN.[68Ga+3] [Ga-68 DFO, gallium-68 bound DFO]
uptake of probe in the lungs (in vivo imaging and ex vivo biodistribution) [3]: increased uptake | uptake of probe in the lungs (in vivo imaging and ex vivo biodistribution) [4]: limited uptake

CN1[C@@H]([C@H]2CSC(c3ccccc3O)=N2)SC[C@H]1C(=O)O [PcH, pyochelin]
Cu-64 screen with siderophore, pH 3 ([5]; 37° C., 60 mins): 0 | Cu-64 screen with siderophore, pH 5.5 ([5]; 37° C., 60 mins): 85 | Cu-64 screen with siderophore, pH 7.0 ([5]; 37° C., 60 mins): 95 | Cu-64 screen with siderophore, pH 9 ([5]; 37° C., 60 mins): 0 | Cu-64 screen with siderophore, pH 3 ([5]; 90° C., 30 mins): 0 | Cu-64 screen with siderophore, pH 5.5 ([5]; 90° C., 30 mins): 0 | Cu-64 screen with siderophore, pH 7.0 ([5]; 90° C., 30 mins): 0 | Cu-64 screen with siderophore, pH 9 ([5]; 90° C., 30 mins): 0 | complexation of pyochelin with copper-64, in words ([5]; in vitro studies): complexes extremely well | binding affinity between Cu-64 and PcH ([5]; pH 5.5 and pH 7, 37° C.): high binding affinity | pH 3.5 (% complex) ([6]; Lead-203, pH 3.5, 37° C.): 3 % complex | pH 5.5 (% complex) ([6]; Lead-203, pH 5.5, 37° C.): 3 % complex | pH 7 (% complex) ([6]; Lead-203, pH 7, 37° C.): 2 % complex | association between pyochelin and lead-203 (TLC) [6, 17]: mostly poor association | pH 3.5 (% complex) ([7]; Zirconium-89, pH 3.5, 37° C.): 22.8 % complex | pH 5.5 (% complex) ([7]; Zirconium-89, pH 5.5, 37° C.): 73.7 % complex | pH 7 (% complex) ([7]; Zirconium-89, pH 7, 37° C.): 75.6 % complex | association between pyochelin and zirconium-89 (TLC) [7, 17]: mostly poor association | pH 3.5 (% complex) ([8]; Titanium-45, pH 3.5, 37° C.): 33.1 % complex | pH 5.5 (% complex) ([8]; Titanium-45, pH 5.5, 37° C.): 72.3 % complex | pH 7 (% complex) ([8]; Titanium-45, pH 7, 37° C.): 60 % complex | association between pyochelin and titanium-45 (TLC) [8, 17]: mostly poor association | pH 3.5 (% complex) ([9]; Manganese-52, pH 3.5, 37° C.): 1.2 % complex | pH 5.5 (% complex) ([9]; Manganese-52, pH 5.5, 37° C.): 2.2 % complex | pH 7 (% complex) ([9]; Manganese-52, pH 7, 37° C.): 1.1 % complex | association between pyochelin and manganese-52 (TLC) [9, 17]: mostly poor association | pH 3.5 (% complex) ([10]; Gallium-68, pH 3.5, 37° C.): 100 % complex | pH 5.5 (% complex) ([10]; Gallium-68, pH 5.5, 37° C.): 100 % complex | pH 7 (% complex) ([10]; Gallium-68, pH 7, 37° C.): 100 % complex | complexation of gallium-68 with pyochelin ([10]; all three pH conditions (3.5, 5.5, 7) at 37° C.): 100%

copper-64 bound pyochelin [Cu-64-Pch]
stability after serum incubation (HPLC) [11]: ≥ 91% | uptake of probe in the lungs (imaging and radioactive biodistribution) ([12]; Balb/c mice, bacteria intra-nasally, probe retro-orbitally ~150 uCi, PET/CT 48 hours after bacteria): increased uptake | transport of probe into bacterial cells (in vivo images) ([12]; P. aeruginosa cells): transported into the P. aeruginosa cells | biodistribution levels in lungs ([12]; P. aeruginosa containing lungs): elevated levels | biodistribution and probe accumulation, intra-tracheal compared to intra-nasal bacterial administration ([12]; PA01 administered intra-tracheally vs intra-nasally): significant increase in biodistribution and probe accumulation | uptake of probe in the lungs (imaging and radioactive biodistribution) ([13]; Balb/c mice infected with non-fptA expressing organisms, probe retro-orbitally ~150 uCi): limited uptake | transport of probe into bacterial cells (in vivo images) ([13]; bacterial cells that don't express the fptA receptor): not transported

gallium-68 bound pyochelin [Ga-68 Pch]
stability in serum (radio chromatogram) [14]: high stability in serum | uptake of probe in the lungs (in vivo imaging and ex vivo biodistribution) [15]: increased uptake | uptake of probe in the lungs (in vivo imaging and ex vivo biodistribution) [16]: limited uptake
